Read-outs that look alike come from different tables or passages of the source.
Key:
Format in all cases: in vivo
[1] = test system: crabgrass, large (large crabgrass, Digitaria sanguinalis); test: Test A pre-/postemergence: crabgrass, large; details: Digitaria sanguinalis, 240 h; for pest or weed control at 125 g/ha: 125 g ai/ha; for pest or weed control at 500 g/ha: 500 g ai/ha
Summary of the method: (§1)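 Soil medium was loam blended with sand; treatments pre- and postemergence were applied concurrently, postemergence at one- to two-leaf stage. Approximately ten days in greenhouse preceded visual comparison with untreated controls, scored 0 (no effect) to 100 (complete control).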

[2] = test system: foxtail, giant (giant foxtail, Setaria faberii); test: Test A pre-/postemergence: foxtail, giant; details: Setaria faberi, 240 h; for pest or weed control at 125 g/ha: 125 g ai/ha; for pest or weed control at 500 g/ha: 500 g ai/ha
Summary of the method: as §1

[3] = test system: pigweed (Amaranthus retroflexus); test: Test A pre-/postemergence: pigweed; details: Amaranthus retroflexus, 240 h; for pest or weed control at 125 g/ha: 125 g ai/ha; for pest or weed control at 500 g/ha: 500 g ai/ha
Summary of the method: as §1

[4] = test system: wheat (Triticum aestivum); test: Test A pre-/postemergence: wheat; details: Triticum aestivum, 240 h; for plant injury at 125 g/ha: 125 g ai/ha; for plant injury at 500 g/ha: 500 g ai/ha
Summary of the method: as §1

wild oat (Avena fatua) = test: Test C pre-/postemergence: wild oat
Summary of the method: (§2)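 Preemergence on seeds in loam/sand, postemergence on 2–18 cm (1–4-leaf) plants in peat-based medium; compounds in non-phytotoxic solvent with surfactant. After 13–15 days in greenhouse, visual rating versus controls, 0 (no effect) to 100 (complete control).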

[5] = test system: foxtail, giant (giant foxtail, Setaria faberii); test: Test C pre-/postemergence: foxtail, giant
Summary of the method: as §2

[6] = test system: nightshade (eastern black nightshade, Solanum ptycanthum); test: Test C pre-/postemergence: nightshade; details: Preemergence
Summary of the method: as §2

[7] = test system: nutsedge, yellow (yellow nutsedge, Cyperus esculentus); test: Test C pre-/postemergence: nutsedge, yellow
Source text: (§3) Seeds of plant species selected from blackgrass (Alopecurus myosuroides), bromegrass, downy (downy bromegrass, Bromus tectorum), foxtail, green (green foxtail, Setaria viridis), ryegrass, Italian (Italian ryegrass, Lolium multiflorum), winter wheat (Triticum aestivum), wild oat (Avena fatua), galium (catchweed bedstraw, Galium aparine), bermudagrass (Cynodon dactylon), surinam grass (Brachiaria decumbens), cocklebur (common cocklebur, Xanthium strumarium), corn (Zea mays), large crabgrass (Digitaria sanguinalis), woolly cupgrass (Eriochloa villosa), foxtail, giant (giant foxtail, Setaria faberii), goosegrass (Eleusine indica), johnsongrass (Sorghum halepense), kochia (Kochia scoparia), lambsquarters (Chenopodium album), morningglory (Ipomoea coccinea), nightshade (eastern black nightshade, Solanum ptycanthum), nutsedge, yellow (yellow nutsedge, Cyperus esculentus), pigweed (Amaranthus retroflexus), ragweed (common ragweed, Ambrosia elation), soybean (Glycine max), common (oilseed) sunflower (Helianthus annuus), Russian thistle (Salsola kali) and velvetleaf (Abutilon theophrasti) were planted into a blend of loam soil and sand and treated preemergence with test chemicals formulated in a non-phytotoxic solvent mixture which included a surfactant.
(§4) At the same time, plants selected from these crop and weed species and also barley (winter barley, Hordeum vulgare), canarygrass (Phalaris minor), chickweed (common chickweed, Stellaria media) windgrass (Apera spica-venti) and deadnettle (henbit deadnettle, Lamium amplexicaule) were planted in pots containing Redi-Earth® planting medium (Scotts Company, 14111 Scottslawn Road, Marysville, Ohio 43041) comprising spaghnum peat moss, vermiculite, wetting agent and starter nutrients and treated with postemergence applications of test chemicals formulated in the same manner. Plants ranged in height from 2 to 18 cm (1- to 4-leaf stage) for postemergence treatments.
(§5) Treated plants and controls were maintained in a greenhouse for 13 to 15 days, after which time all species were compared to controls and visually evaluated. Plant response ratings, summarized in Table C, are based on a scale of 0 to 100 where 0 is no effect and 100 is complete control. A dash (-) response means no test result.

[8] = test system: pigweed (Amaranthus retroflexus); test: Test C pre-/postemergence: pigweed
Source text: as §3, §4, §5

soybean (Glycine max) = test: Test C pre-/postemergence: soybean
Source text: as §3, §4, §5

[9] = Postemergence, 16 g ai/ha, scale 0 to 100, 0 no effect, 100 complete control
[10] = Postemergence, 31 g ai/ha, scale 0 to 100 (0 no effect, 100 complete control)
[11] = Postemergence, 62 g ai/ha, scale 0 to 100 (0 no effect, 100 complete control)
[12] = Postemergence, 125 g ai/ha, scale 0 to 100, 0 no effect, 100 complete control
[13] = Preemergence, 16 g ai/ha, scale 0 (no effect) to 100 (complete control)
[14] = Preemergence, 31 g ai/ha, scale of 0 to 100, 0 is no effect, 100 is complete control
[15] = Preemergence, 62 g ai/ha, scale of 0 to 100, 0 is no effect, 100 is complete control
[16] = Preemergence, 125 g ai/ha, scale 0 to 100, 0 no effect, 100 complete control

COc1nn(-c2ccc(C(F)(F)F)cc2)nc1Cc1ccnc(C(F)(F)F)c1 [Compound 15, 4-[[5-methoxy-2-[4-(trifluoromethyl)phenyl]-2H-1,2,3-triazol-4-yl]methyl]-2-(trifluoromethyl)pyridine]
25: Plant response rating, Nightshade ([6]; 31 g ai/ha, scale of 0 to 100, 0 is no effect, 100 is complete control) | Plant response rating, Soybean (soybean (Glycine max); [16])
40: Plant response rating, Oat, Wild (wild oat (Avena fatua); [9]) | Plant response rating, Oat, Wild (wild oat (Avena fatua); [14])
98: Plant response rating, Pigweed [8, 13]
55: Plant response rating, Oat, Wild (wild oat (Avena fatua); [11])
100%: pest or weed control at 125 g/ha ([1]; pre-emergence, Preemergence, 0 to 100 scale (0 no effect, 100 complete control), read-out: Plant response rating, Crabgrass, Large) | pest or weed control at 500 g/ha ([1]; pre-emergence, Preemergence, 0 to 100 scale, 0 is no effect, 100 is complete control, read-out: Plant response rating, Crabgrass, Large) | pest or weed control at 125 g/ha ([2]; pre-emergence, Preemergence, 0 to 100 scale (0 no effect, 100 complete control), read-out: Plant response rating, Foxtail, Giant) | pest or weed control at 500 g/ha ([2]; pre-emergence, Preemergence, 0 to 100 scale, 0 is no effect, 100 is complete control, read-out: Plant response rating, Foxtail, Giant) | pest or weed control at 125 g/ha ([3]; post-emergence, Postemergence, 0 to 100 scale, 0 is no effect, 100 is complete control, read-out: Pigweed plant response rating) | pest or weed control at 500 g/ha ([3]; post-emergence, Postemergence, visual rating on 0 to 100 scale (0 no effect, 100 complete control), approximately ten days, read-out: Pigweed plant response rating) | pest or weed control at 125 g/ha ([3]; pre-emergence, Preemergence, 0 to 100 scale (0 no effect, 100 complete control), read-out: Plant response rating, Pigweed) | pest or weed control at 500 g/ha ([3]; pre-emergence, Preemergence, 0 to 100 scale, 0 is no effect, 100 is complete control, read-out: Plant response rating, Pigweed)
90: Plant response rating, Nightshade ([6]; 125 g ai/ha, scale 0 to 100, 0 no effect, 100 complete control) | Plant response rating, Pigweed [8, 12]
10: Plant response rating, Foxtail, Giant [5, 10] | Plant response rating, Foxtail, Giant [5, 11] | Plant response rating, Nightshade ([6]; 16 g ai/ha, scale 0 (no effect) to 100 (complete control)) | Plant response rating, Nutsedge, Yellow [7, 16] | Plant response rating, Soybean (soybean (Glycine max); [9]) | Plant response rating, Soybean (soybean (Glycine max); [10])
45: Plant response rating, Oat, Wild (wild oat (Avena fatua); [10]) | Plant response rating, Soybean (soybean (Glycine max); [12])
90%: pest or weed control at 125 g/ha ([1]; post-emergence, Postemergence, 0 to 100 scale, 0 is no effect, 100 is complete control, read-out: Crabgrass, Large plant response rating) | pest or weed control at 500 g/ha ([1]; post-emergence, Postemergence, visual rating on 0 to 100 scale (0 no effect, 100 complete control), approximately ten days, read-out: Crabgrass, Large plant response rating) | pest or weed control at 125 g/ha ([2]; post-emergence, Postemergence, 0 to 100 scale, 0 is no effect, 100 is complete control, read-out: Foxtail, Giant plant response rating) | pest or weed control at 500 g/ha ([2]; post-emergence, Postemergence, visual rating on 0 to 100 scale (0 no effect, 100 complete control), approximately ten days, read-out: Foxtail, Giant plant response rating)
60: Plant response rating, Oat, Wild (wild oat (Avena fatua); [12]) | Plant response rating, Pigweed [8, 10]
70: Plant response rating, Oat, Wild (wild oat (Avena fatua); [15]) | Plant response rating, Oat, Wild (wild oat (Avena fatua); [16]) | Plant response rating, Pigweed [8, 11]
85: Plant response rating, Nightshade ([6]; 62 g ai/ha, scale of 0 to 100, 0 is no effect, 100 is complete control)
50%: plant injury at 500 g/ha ([4]; post-emergence, Postemergence, visual rating on 0 to 100 scale (0 no effect, 100 complete control), approximately ten days, read-out: Wheat plant response rating) | plant injury at 500 g/ha ([4]; pre-emergence, Preemergence, 0 to 100 scale, 0 is no effect, 100 is complete control, read-out: Plant response rating, Wheat)
35: Plant response rating, Oat, Wild (wild oat (Avena fatua); [13]) | Plant response rating, Soybean (soybean (Glycine max); [11])
0: Plant response rating, Nutsedge, Yellow [7, 9] | Plant response rating, Nutsedge, Yellow [7, 10] | Plant response rating, Nutsedge, Yellow [7, 11] | Plant response rating, Nutsedge, Yellow [7, 12] | Plant response rating, Nutsedge, Yellow [7, 13] | Plant response rating, Nutsedge, Yellow [7, 14] | Plant response rating, Nutsedge, Yellow [7, 15] | Plant response rating, Soybean (soybean (Glycine max); [13]) | Plant response rating, Soybean (soybean (Glycine max); [14]) | Plant response rating, Soybean (soybean (Glycine max); [15])
75: Plant response rating, Foxtail, Giant [5, 12]
100: Plant response rating, Foxtail, Giant [5, 15] | Plant response rating, Foxtail, Giant [5, 16] | Plant response rating, Pigweed [8, 14] | Plant response rating, Pigweed [8, 15] | Plant response rating, Pigweed [8, 16]
5: Plant response rating, Foxtail, Giant [5, 9] | Plant response rating, Pigweed [8, 9]
95: Plant response rating, Foxtail, Giant [5, 13] | Plant response rating, Foxtail, Giant [5, 14]
30%: plant injury at 125 g/ha ([4]; post-emergence, Postemergence, 0 to 100 scale, 0 is no effect, 100 is complete control, read-out: Wheat plant response rating) | plant injury at 125 g/ha ([4]; pre-emergence, Preemergence, 0 to 100 scale (0 no effect, 100 complete control), read-out: Plant response rating, Wheat)
